Laboratory results from publication PMC6222422, “Synthesis and Biological Evaluation of Novel Indole-Derived Thioureas” (Molecules : A Journal of Synthetic Chemistry and Natural …, 2018).
In brackets after ≈: the same amount, converted by molar mass. Where two headings read alike, the source gives them in different places.

Legend:
[1] = system: B. cereus ATCC 11778; assay: MIC, twofold serial agar dilution; assay type: cell-based; conditions: Bacillus cereus, ATCC11778, 18 h, 35 °C, read-out: minimal inhibitory concentrations (MIC)
[2] = system: S. aureus ATCC 29213; assay: MIC, twofold serial agar dilution; assay type: cell-based; conditions: Staphylococcus aureus, ATCC29213, 18 h, 35 °C, read-out: minimal inhibitory concentrations (MIC)
[3] = system: S. epidermidis ATCC 12228; assay: MIC, twofold serial agar dilution; assay type: cell-based; conditions: Staphylococcus epidermidis, ATCC12228, 18 h, 35 °C, read-out: minimal inhibitory concentrations (MIC)
[4] = system: M. luteus ATCC 10240; assay: MIC, twofold serial agar dilution; assay type: cell-based; conditions: Micrococcus luteus, ATCC10240, 18 h, 35 °C, read-out: minimal inhibitory concentrations (MIC)
[5] = system: B. subtilis ATCC 6633; assay: MIC, twofold serial agar dilution; assay type: cell-based; conditions: Bacillus subtilis, ATCC6633, 18 h, 35 °C, read-out: minimal inhibitory concentrations (MIC)
[6] = system: B. cereus ATCC 11778; assay: disc diffusion method; assay type: cell-based, Bacillus cereus; conditions: 5 µg/9 mm disc
[7] = system: S. aureus ATCC 25923; assay: MIC, twofold serial agar dilution; assay type: cell-based; conditions: Staphylococcus aureus, ATCC25923, 18 h, 35 °C, read-out: minimal inhibitory concentrations (MIC)
[8] = system: M. luteus ATCC 10240; assay: disc diffusion method; assay type: cell-based, Micrococcus luteus; conditions: 5 µg/9 mm disc
[9] = system: B. subtilis ATCC 6633; assay: disc diffusion method; assay type: cell-based, Bacillus subtilis; conditions: 5 µg/9 mm disc
[10] = system: M. luteus ATCC 9341; assay: disc diffusion method; assay type: cell-based, Micrococcus luteus; conditions: 5 µg/9 mm disc
[11] = biological target: S. aureus topoisomerase IV (Staphylococcus aureus, UniProt P0C1S7+P0C1U9); conditions: at 32 µg/mL
[12] = system: S. epidermidis ATCC 12228; assay: disc diffusion method; assay type: cell-based, Staphylococcus epidermidis; conditions: 5 µg/9 mm disc
[13] = system: S. aureus ATCC 25923; assay: disc diffusion method; assay type: cell-based, Staphylococcus aureus; conditions: 5 µg/9 mm disc
[14] = system: methicillin-resistant strains of S. aureus (MRSA); assay: MIC against hospital strains; conditions: Staphylococcus aureus
[15] = system: S. aureus ATCC 29213; assay: disc diffusion method; assay type: cell-based, Staphylococcus aureus; conditions: 5 µg/9 mm disc
[16] = system: M. luteus ATCC 9341; assay: MIC, twofold serial agar dilution; assay type: cell-based; conditions: Micrococcus luteus, ATCC9341, 18 h, 35 °C, read-out: minimal inhibitory concentrations (MIC)
[17] = system: S. aureus ATCC 6538; assay: disc diffusion method; assay type: cell-based, Staphylococcus aureus; conditions: 5 µg/9 mm disc
[18] = system: S. aureus NCTC 4163; assay: MIC, twofold serial agar dilution; assay type: cell-based; conditions: Staphylococcus aureus, NCTC4163, 18 h, 35 °C, read-out: minimal inhibitory concentrations (MIC)
[19] = system: S. aureus ATCC 6538; assay: MIC, twofold serial agar dilution; assay type: cell-based; conditions: Staphylococcus aureus, ATCC6538, 18 h, 35 °C, read-out: minimal inhibitory concentrations (MIC)
[20] = system: S. aureus NCTC 4163; assay: disc diffusion method; assay type: cell-based, Staphylococcus aureus; conditions: 5 µg/9 mm disc
[21] = system: hospital methicillin-susceptible strains of S. aureus (MSSA); assay: MIC against hospital strains; conditions: Staphylococcus aureus
[22] = system: S. epidermidis (MRSE); assay: MIC against hospital strains; conditions: Staphylococcus epidermidis
[23] = system: HIV-1 N119 (Y181C mutant); assay: microbe, parasite or virus in culture; assay type: cell-based, Human Immunodeficiency Virus type-1; conditions: Human immunodeficiency virus 1, MT4, read-out: EC50 N119
[24] = system: HSV-1; assay: microbe, parasite or virus in culture; assay type: cell-based, human herpes 1; conditions: Human alphaherpesvirus 1, Vero 76, read-out: HSV-1 EC50
[25] = in vitro; conditions: African green monkey (Cercopithecus aethiops)
[26] = system: VV; assay: microbe, parasite or virus in culture; assay type: cell-based; conditions: Orthopoxvirus vaccinia, Vero 76, read-out: VV EC50
[27] = system: BVDV; assay: microbe, parasite or virus in culture; assay type: cell-based, bovine viral diarrhoea virus; conditions: Bovine viral diarrhea virus isolates and strains, MDBK, in Bos taurus, read-out: BVDV EC50
[28] = system: HIV-1 MDR strain (74V, 41L, 106A, 215Y); assay: microbe, parasite or virus in culture; assay type: cell-based, Human Immunodeficiency Virus type-1
[29] = system: VSV; assay: microbe, parasite or virus in culture; assay type: cell-based; conditions: Vesicular stomatitis virus, Vero 76, read-out: VSV EC50
[30] = in vitro; conditions: human
[31] = system: HIV-1 AZT^R strain (67N, 70R, 215F, 219Q); assay: microbe, parasite or virus in culture; assay type: cell-based, Human Immunodeficiency Virus type-1
[32] = in vitro; conditions: cattle (Bos taurus)
[33] = system: CV-B5; assay: microbe, parasite or virus in culture; assay type: cell-based, coxsackievirus B5; conditions: Enterovirus B, CVB5, Vero 76, read-out: CV-B5 EC50
[34] = system: HIV-1; assay: microbe, parasite or virus in culture
[35] = system: HIV-1 EFV^R (K103R + V179D + P225H mutant); assay: microbe, parasite or virus in culture; assay type: cell-based, Human Immunodeficiency Virus type-1; conditions: Human immunodeficiency virus 1, MT4, 96 h, read-out: EC50 EFV^R
[36] = system: Reo-1; assay: microbe, parasite or virus in culture; assay type: cell-based, reovirus type-1; conditions: Reovirus sp., BHK, read-out: Reo-1 EC50
[37] = system: HIV-1 A17 (K103N + Y181C mutant); assay: microbe, parasite or virus in culture; assay type: cell-based, Human Immunodeficiency Virus type-1
[38] = system: RSV; assay: microbe, parasite or virus in culture; assay type: cell-based, human respiratory syncytial virus; conditions: human respiratory syncytial virus, Vero 76, read-out: RSV EC50
[39] = in vitro; conditions: Syrian hamster (Mesocricetus auratus)
[40] = system: Sb-1; assay: microbe, parasite or virus in culture; assay type: cell-based, poliovirus type-1; conditions: Enterovirus C, Vero 76, read-out: Sb-1 EC50
[41] = system: YFV; assay: microbe, parasite or virus in culture; assay type: cell-based; conditions: Yellow fever virus, BHK, read-out: YFV EC50

Chain of S. aureus topoisomerase IV (P0C1U9 whole entry, the tested form may be a part): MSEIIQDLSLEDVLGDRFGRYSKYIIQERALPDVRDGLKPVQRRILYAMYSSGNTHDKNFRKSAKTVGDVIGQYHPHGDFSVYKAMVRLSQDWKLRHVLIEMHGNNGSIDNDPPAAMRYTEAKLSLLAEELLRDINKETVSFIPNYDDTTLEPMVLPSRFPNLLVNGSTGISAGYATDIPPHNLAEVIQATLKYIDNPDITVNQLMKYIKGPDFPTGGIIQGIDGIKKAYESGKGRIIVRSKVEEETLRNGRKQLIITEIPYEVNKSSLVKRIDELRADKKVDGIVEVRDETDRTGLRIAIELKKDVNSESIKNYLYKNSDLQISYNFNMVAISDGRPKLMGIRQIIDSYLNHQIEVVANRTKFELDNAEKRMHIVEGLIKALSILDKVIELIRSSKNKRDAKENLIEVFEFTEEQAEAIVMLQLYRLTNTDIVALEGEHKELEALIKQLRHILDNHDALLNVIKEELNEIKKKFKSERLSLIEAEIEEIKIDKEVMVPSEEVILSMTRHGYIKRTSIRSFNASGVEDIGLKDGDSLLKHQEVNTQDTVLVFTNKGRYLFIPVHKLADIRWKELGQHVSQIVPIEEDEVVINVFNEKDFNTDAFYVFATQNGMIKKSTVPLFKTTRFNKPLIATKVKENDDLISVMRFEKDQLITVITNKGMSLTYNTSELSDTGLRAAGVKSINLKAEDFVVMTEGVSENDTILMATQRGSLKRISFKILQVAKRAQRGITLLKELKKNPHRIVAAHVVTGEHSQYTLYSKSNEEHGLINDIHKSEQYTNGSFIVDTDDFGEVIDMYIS
Chain of S. aureus topoisomerase IV (P0C1S7 whole entry, the tested form may be a part): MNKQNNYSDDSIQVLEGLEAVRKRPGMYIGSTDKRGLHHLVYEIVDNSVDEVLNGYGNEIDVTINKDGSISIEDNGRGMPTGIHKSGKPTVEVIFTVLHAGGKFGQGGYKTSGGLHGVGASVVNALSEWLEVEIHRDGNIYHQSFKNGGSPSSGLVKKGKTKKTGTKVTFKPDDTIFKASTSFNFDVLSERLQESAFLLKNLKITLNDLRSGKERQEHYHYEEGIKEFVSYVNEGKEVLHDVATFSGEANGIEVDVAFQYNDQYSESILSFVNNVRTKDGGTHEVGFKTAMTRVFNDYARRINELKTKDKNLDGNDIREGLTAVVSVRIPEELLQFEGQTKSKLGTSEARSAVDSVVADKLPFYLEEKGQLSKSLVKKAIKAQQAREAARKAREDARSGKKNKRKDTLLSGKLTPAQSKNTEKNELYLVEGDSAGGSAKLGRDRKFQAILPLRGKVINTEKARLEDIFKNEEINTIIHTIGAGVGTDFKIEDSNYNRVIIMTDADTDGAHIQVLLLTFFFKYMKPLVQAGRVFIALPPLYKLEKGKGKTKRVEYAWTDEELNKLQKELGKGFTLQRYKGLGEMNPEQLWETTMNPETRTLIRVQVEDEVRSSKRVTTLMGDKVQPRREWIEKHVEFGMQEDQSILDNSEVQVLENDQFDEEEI

Compound: O=C(O)c1cn(C2CC2)c2cc(N3CCNCC3)c(F)cc2c1=O [Ciprofloxacin, reference compound]
- MIC [1]: 0.25 µg/mL (≈ 0.754 µM)
- MIC [2]: 0.5 µg/mL (≈ 1.51 µM)
- MIC [3]: 0.25 µg/mL (≈ 0.754 µM)
- MIC [4]: 1 µg/mL (≈ 3.02 µM)
- MIC [5]: < 0.12 µg/mL
- diameter of growth inhibitory zone (GIZ) [6]: 26 mm
- MIC [7]: 0.5 µg/mL (≈ 1.51 µM)
- diameter of growth inhibitory zone (GIZ) [8]: 25 mm
- diameter of growth inhibitory zone (GIZ) [9]: 38 mm
- diameter of growth inhibitory zone (GIZ) [10]: 26 mm
- inhibition of decatenation activity of S. aureus topoisomerase IV [11]: almost completely inhibited
- diameter of growth inhibitory zone (GIZ) [12]: 30 mm
- diameter of growth inhibitory zone (GIZ) [13]: 26 mm
- MIC ([14]; hospital S. aureus MRSA strain 389/10): 25 µg/mL (≈ 75.4 µM)
- MIC ([14]; hospital S. aureus MRSA strain 390/10): 100 µg/mL (≈ 302 µM)
- MIC ([14]; hospital S. aureus MRSA strain 391/10): 100 µg/mL (≈ 302 µM)
- MIC ([14]; hospital S. aureus MRSA strain 392/10): 100 µg/mL (≈ 302 µM)
- MIC ([14]; hospital S. aureus MRSA strain 393/10): 50 µg/mL (≈ 151 µM)
- MIC ([14]; hospital S. aureus MRSA strain 394/10): 25 µg/mL (≈ 75.4 µM)
- MIC ([14]; hospital S. aureus MRSA strain 399/10): 200 µg/mL (≈ 604 µM)
- MIC ([14]; hospital S. aureus MRSA strain 450/11): 100 µg/mL (≈ 302 µM)
- MIC ([14]; hospital S. aureus MRSA strain 451/11): 100 µg/mL (≈ 302 µM)
- MIC ([14]; hospital S. aureus MRSA strain 452/11): 200 µg/mL (≈ 604 µM)
- diameter of growth inhibitory zone (GIZ) [15]: 22 mm
- MIC [16]: 0.25 µg/mL (≈ 0.754 µM)
- diameter of growth inhibitory zone (GIZ) [17]: 28 mm
- MIC [18]: 0.25 µg/mL (≈ 0.754 µM)
- MIC [19]: 0.25 µg/mL (≈ 0.754 µM)
- diameter of growth inhibitory zone (GIZ) [20]: 26 mm
- MIC ([21]; hospital S. aureus MSSA strain 440/11): 0.4 µg/mL (≈ 1.21 µM)
- MIC ([21]; hospital S. aureus MSSA strain 441/11): 0.4 µg/mL (≈ 1.21 µM)
- MIC ([21]; hospital S. aureus MSSA strain 442/11): 0.4 µg/mL (≈ 1.21 µM)
- MIC ([21]; hospital S. aureus MSSA strain 443/11): 0.4 µg/mL (≈ 1.21 µM)
- MIC ([21]; hospital S. aureus MSSA strain 444/11): 0.8 µg/mL (≈ 2.41 µM)
- MIC ([21]; hospital S. aureus MSSA strain 445/11): 0.4 µg/mL (≈ 1.21 µM)
- MIC ([21]; hospital S. aureus MSSA strain 446/11): 0.4 µg/mL (≈ 1.21 µM)
- MIC ([21]; hospital S. aureus MSSA strain 447/11): 0.8 µg/mL (≈ 2.41 µM)
- MIC ([21]; hospital S. aureus MSSA strain 448/11): 0.8 µg/mL (≈ 2.41 µM)
- MIC ([21]; hospital S. aureus MSSA strain 449/11): 0.4 µg/mL (≈ 1.21 µM)
- MIC [22]: 6.25 µg/mL (≈ 18.9 µM)
- MIC ([22]; hospital S. epidermidis MRSE strain 430/11): 0.8 µg/mL (≈ 2.41 µM)
- MIC ([22]; hospital S. epidermidis MRSE strain 432/11): 50 µg/mL (≈ 151 µM)
- MIC ([22]; hospital S. epidermidis MRSE strain 433/11): 50 µg/mL (≈ 151 µM)
- MIC ([22]; hospital S. epidermidis MRSE strain 434/11): 50 µg/mL (≈ 151 µM)
- MIC ([22]; hospital S. epidermidis MRSE strain 435/11): 0.4 µg/mL (≈ 1.21 µM)
- MIC ([22]; hospital S. epidermidis MRSE strain 436/11): 0.4 µg/mL (≈ 1.21 µM)
- MIC ([22]; hospital S. epidermidis MRSE strain 437/11): 0.8 µg/mL (≈ 2.41 µM)
- MIC ([22]; hospital S. epidermidis MRSE strain 438/11): 0.4 µg/mL (≈ 1.21 µM)
- MIC ([22]; hospital S. epidermidis MRSE strain 439/11): 50 µg/mL (≈ 151 µM)

Compound: S=C(NCCc1c[nH]c2ccccc12)Nc1ccc(Br)cc1 [Compound 8, 1-(2-(1H-Indol-3-yl)ethyl)-3-(4-bromophenyl)thiourea]
- EC50 [23]: > 45 µM
- EC50 [24]: > 13 µM
- CC50 [25]: 13 µM
- EC50 [26]: > 13 µM
- melting point: 156 to 158 °C
- EC50 [27]: > 52 µM
- activity against MDR strain compared with wild type (in words) [28]: comparable with those of HIV-1 wild-type
- EC50 ([28]; Human immunodeficiency virus 1, MT4, read-out: EC50 MDR): 9 ± 0.8 µM
- EC50 [29]: > 13 µM
- CC50 [30]: 45 µM
- activity against AZT^R strain compared with wild type (in words) [31]: comparable with those of HIV-1 wild-type
- EC50 ([31]; Human immunodeficiency virus 1, MT4, read-out: EC50 AZT^R): 9 ± 1 µM
- CC50 [32]: 52 µM
- EC50 [33]: > 13 µM
- EC50 ([34]; Human immunodeficiency virus 1, MT4, read-out: EC50 HIV-1): 8.7 ± 0.8 µM
- EC50 ([34]; Human immunodeficiency virus 1, MT4, read-out: HIV-1 EC50): 8.7 ± 0.4 µM
- EC50 [35]: > 45 µM
- EC50 [36]: > 10 µM
- activity against A17 strain compared with wild type (in words) [37]: comparable with those of HIV-1 wild-type
- EC50 ([37]; Human immunodeficiency virus 1, MT4, 96 h, read-out: EC50 A17): 12 ± 1.5 µM
- EC50 [38]: > 13 µM
- CC50 [39]: 10 µM
- EC50 [40]: > 13 µM
- EC50 [41]: > 10 µM
